Source: ChEMBL document CHEMBL3352638, “Improving the MDR reversal activity of 6,17-epoxylathyrane diterpenes” (Bioorg Med Chem, 2014)

Assays:
L5178Y [1] = test: Antiproliferative activity against mouse L5178Y cells after 72 hrs by MTT assay; format: functional, cell-based
L5178Y [2] = test: Antiproliferative activity against human MDR1 transfected mouse L5178Y cells after 72 hrs by MTT assay; format: functional, cell-based
[3] = target: T1, ATP-dependent translocase ABCB1 (Homo sapiens, UniProt P08183); test: Inhibition of human MDR1 expressed in mouse L5178Y cells assessed as Rhodamine-123 accumulation measured as fluorescence activity at 20 uM after 20 mins by flow cytometry relative to control; format: cell-based
[4] = target: T1, ATP-dependent translocase ABCB1; test: Inhibition of human MDR1 expressed in mouse L5178Y cells assessed as Rhodamine-123 accumulation measured as fluorescence activity at 2 uM after 20 mins by flow cytometry relative to control; format: cell-based
[5] = target: T1, ATP-dependent translocase ABCB1; test: Inhibition of human MDR1 expressed in mouse L5178Y cells assessed as Rhodamine-123 accumulation measured as fluorescence activity at 40 uM after 20 mins by flow cytometry relative to control; format: cell-based
L5178Y [6] = test: Antiproliferative activity against human MDR1 transfected mouse L5178Y cells after 48 hrs by MTT assay in presence of doxorubicin; format: functional
[7] = target: T1, ATP-dependent translocase ABCB1; test: Stimulation of vanadate-sensitive ATPase activity of human MDR1 expressed in Sf9 membrane vesicles assessed as inorganic phosphate production at 2 to 100 uM after 10 mins by colorimetry; format: cell membranes; conditions: sf9, 10 min
[8] = target: T1, ATP-dependent translocase ABCB1; test: Inhibition of verapamil-stimulated vanadate-sensitive ATPase activity of human MDR1 expressed in Sf9 membrane vesicles assessed as inorganic phosphate production at 2 to 100 uM after 10 mins by colorimetry; format: cell membranes; conditions: sf9, 10 min
[9] = target: T1, ATP-dependent translocase ABCB1; test: Inhibition of human MDR1 expressed in mouse L5178Y cells assessed as Rhodamine-123 accumulation after 20 mins by flow cytometry; format: cell-based
[10] = target: T1, ATP-dependent translocase ABCB1; test: Inhibition of human MDR1 expressed in mouse L5178Y cells assessed as Rhodamine-123 accumulation measured as fluorescence activity at 80 uM after 20 mins by flow cytometry relative to control; format: cell-based

T1 sequence (P08183 whole entry): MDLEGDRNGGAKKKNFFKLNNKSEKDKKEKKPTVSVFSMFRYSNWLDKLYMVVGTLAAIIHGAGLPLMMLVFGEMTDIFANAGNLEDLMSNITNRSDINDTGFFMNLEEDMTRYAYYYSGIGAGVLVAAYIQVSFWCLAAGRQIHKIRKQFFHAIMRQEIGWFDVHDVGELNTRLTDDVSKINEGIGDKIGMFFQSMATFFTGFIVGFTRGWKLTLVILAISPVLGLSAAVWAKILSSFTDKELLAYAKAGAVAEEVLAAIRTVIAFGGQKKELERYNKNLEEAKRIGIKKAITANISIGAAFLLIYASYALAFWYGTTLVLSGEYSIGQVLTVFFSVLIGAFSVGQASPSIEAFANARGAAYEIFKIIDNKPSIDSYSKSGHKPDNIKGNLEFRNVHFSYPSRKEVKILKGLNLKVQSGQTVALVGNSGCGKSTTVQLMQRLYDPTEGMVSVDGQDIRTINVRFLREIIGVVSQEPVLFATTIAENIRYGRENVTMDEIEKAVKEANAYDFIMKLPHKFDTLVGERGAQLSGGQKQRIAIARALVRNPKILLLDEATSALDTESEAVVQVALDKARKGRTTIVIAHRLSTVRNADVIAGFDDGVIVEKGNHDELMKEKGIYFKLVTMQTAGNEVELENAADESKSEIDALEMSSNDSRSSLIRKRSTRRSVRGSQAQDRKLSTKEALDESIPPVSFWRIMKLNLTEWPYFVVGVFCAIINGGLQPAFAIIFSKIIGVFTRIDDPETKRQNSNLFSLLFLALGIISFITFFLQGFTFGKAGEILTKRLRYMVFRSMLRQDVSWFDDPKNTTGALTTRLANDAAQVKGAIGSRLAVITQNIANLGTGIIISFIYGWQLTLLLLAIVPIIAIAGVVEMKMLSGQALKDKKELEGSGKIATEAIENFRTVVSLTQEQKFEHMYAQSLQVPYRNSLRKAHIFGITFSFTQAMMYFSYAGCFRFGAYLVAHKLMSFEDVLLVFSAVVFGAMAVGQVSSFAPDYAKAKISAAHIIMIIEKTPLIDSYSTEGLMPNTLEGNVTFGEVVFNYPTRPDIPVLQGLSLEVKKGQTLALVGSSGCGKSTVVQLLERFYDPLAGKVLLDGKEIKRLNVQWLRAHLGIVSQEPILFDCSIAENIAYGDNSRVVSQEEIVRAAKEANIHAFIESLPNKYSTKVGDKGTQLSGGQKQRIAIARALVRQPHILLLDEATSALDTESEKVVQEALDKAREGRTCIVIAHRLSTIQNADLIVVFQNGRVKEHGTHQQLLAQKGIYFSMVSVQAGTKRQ

Row | Compound | IC50 (L5178Y [1]) | IC50 (L5178Y [2]) | Ratio [3] | Ratio [4] | Ratio [5] | CI (L5178Y [6]) | Activity [7] | inhibition (INH) [8] | inhibition (INH) [9] | Ratio [10]
1 | CC(=O)O[C@@H]1[C@H]2[C@@H](OC(=O)c3ccccc3)[C@@H](C)C[C@]2(OC(C)=O)C(=O)/C(C)=C/[C@@H]2[C@H](CC[C@]13CO3)C2(C)C | 50.4 µM | 63.3 µM | 80.6 | 63.4 | 102.9 | 0.27 | Active | Active | Dose-dependent effect | –
2 | C/C1=C\[C@@H]2[C@H](CC[C@]3(CO3)[C@H](OC(=O)c3ccccc3)[C@H]3[C@@H](OC(=O)c4ccccc4)[C@@H](C)C[C@]3(O)C1=O)C2(C)C | 68 µM | 73.3 µM | 22.9 | 2 | – | 0.24 | – | – | – | –
3 | CC(=O)O[C@@H]1[C@@H]2[C@@H](OC(C)=O)[C@]3(CC[C@H]4[C@@H](/C=C(\C)C(=O)[C@@]2(OC(C)=O)C[C@@H]1C)C4(C)C)CO3 | 79.3 µM | 93.5 µM | 1 | – | – | 0.24 | – | – | – | 35
4 | CCCC(=O)O[C@@H]1[C@@H]2[C@@H](OC(=O)CCC)[C@]3(CC[C@H]4[C@@H](/C=C(\C)C(=O)[C@@]2(OC(=O)CCC)C[C@@H]1C)C4(C)C)CO3 | 56.4 µM | 84.4 µM | 83.7 | 1.5 | 98 | 0.33 | – | – | Dose-dependent effect | –
5 | CCC(=O)O[C@@H]1[C@@H]2[C@@H](OC(C)=O)[C@]3(CC[C@H]4[C@@H](/C=C(\C)C(=O)[C@@]2(OC(C)=O)C[C@@H]1C)C4(C)C)CO3 | 41.6 µM | 43 µM | 1 | – | – | 0.05 | – | – | – | 58.6
6 | C/C1=C\[C@@H]2[C@H](CC[C@]3(CO3)[C@H](OC(=O)c3ccccc3)[C@H]3[C@@H](OC(=O)c4ccccc4)[C@@H](C)C[C@]3(OC(=O)c3ccccc3)C1=O)C2(C)C | 40.4 µM | 59 µM | 35.2 | 1.7 | – | 0.79 | – | – | – | –
7 | CCCC(=O)O[C@@H]1[C@@H]2[C@@H](OC(C)=O)[C@]3(CC[C@H]4[C@@H](/C=C(\C)C(=O)[C@@]2(OC(C)=O)C[C@@H]1C)C4(C)C)CO3 | 46.4 µM | 79.4 µM | 74.3 | 8 | 96.9 | 0.2 | Active | Active | Dose-dependent effect | –
8 | COc1ccc(C(=O)O[C@@H]2[C@@H]3[C@@H](OC(=O)c4ccc(OC)cc4)[C@]4(CC[C@H]5[C@@H](/C=C(\C)C(=O)[C@@]3(O)C[C@@H]2C)C5(C)C)CO4)cc1 | 76 µM | 86.8 µM | 23.3 | 3 | – | 0.36 | – | – | – | –
9 | CC(=O)O[C@@H]1[C@H]2[C@@H](OC(=O)CC(C)C)[C@@H](C)C[C@]2(OC(C)=O)C(=O)/C(C)=C/[C@@H]2[C@H](CC[C@]13CO3)C2(C)C | 66.8 µM | 92.5 µM | 7.8 | – | – | 0.43 | – | – | – | 22.6
10 | C/C1=C\[C@@H]2[C@H](CC[C@]3(CO3)[C@H](OC(=O)Cc3ccccc3)[C@H]3[C@@H](OC(=O)Cc4ccccc4)[C@@H](C)C[C@]3(O)C1=O)C2(C)C | 111 µM | 123 µM | 73.4 | 3.9 | 80.8 | 1.38 | – | – | Dose-dependent effect | –
11 | CCCCC(CC)C(=O)O[C@@H]1[C@@H]2[C@@H](OC(=O)C(CC)CCCC)[C@]3(CC[C@H]4[C@@H](/C=C(\C)C(=O)[C@@]2(O)C[C@@H]1C)C4(C)C)CO3 (some centres not stated) | 37 µM | 46.6 µM | 33.2 | 5.6 | – | 0.46 | – | – | – | –
12 | C/C1=C\[C@@H]2[C@H](CC[C@]3(CO3)[C@H](OC(=O)c3ccc(C)cc3)[C@H]3[C@@H](OC(=O)c4ccc(C)cc4)[C@@H](C)C[C@]3(O)C1=O)C2(C)C | 36.6 µM | 47.5 µM | 26.5 | 3.3 | – | 0.29 | – | – | – | –
13 | C/C1=C\[C@@H]2[C@H](CC[C@]3(CO3)[C@H](O)[C@H]3[C@@H](OC(=O)/C=C/c4ccccc4)[C@@H](C)C[C@]3(O)C1=O)C2(C)C | 108 µM | 105 µM | 7.4 | 3.7 | – | 1.4 | – | – | – | –
14 | C/C1=C\[C@@H]2[C@H](CC[C@]3(CO3)[C@H](O)[C@H]3[C@@H](O)[C@@H](C)C[C@]3(O)C1=O)C2(C)C | 80.9 µM | 89.2 µM | 1.5 | – | – | 0.66 | – | – | – | 14.8
